Experimental data published in ChEMBL document CHEMBL4024704, “Idiopathic Pulmonary Fibrosis: Current Status, Recent Progress, and Emerging Targets” (J Med Chem, 2017).

Experiments:
Rattus norvegicus [1] = assay: Antifibrotic activity in […] rat bleomycin-induced pulmonary fibrosis model assessed as hydroxyproline content in lung at 0.04 g/day administered via oral gavage by spectrophotometric analysis; format: functional
Cathepsin B = Cathepsin B (Homo sapiens, UniProt P07858); assay: Inhibition of human liver cathepsin B using Boc-Leu-Arg-Arg-AMC as substrate preincubated for 15 mins followed by substrate addition measured after 30 mins by spectrofluorimetric analysis
NIH3T3 [2] = assay: Anticancer activity against mouse NIH/3T3 cells after 24 hrs by cell titer 96 aqueous one solution based assay; conditions: NIH3T3, 24 h
NIH3T3 [3] = assay: Antiproliferative activity against mouse NIH/3T3 cells by MTT assay; format: cell-based
A549 [4] = assay: Antiproliferative activity against human A549 cells after 72 hrs by MTT assay; format: functional, cell-based; conditions: A549, 72 h
NIH3T3 [5] = assay: Antiproliferative activity against mouse NIH/3T3 cells after 72 hrs by MTT assay; format: cell-based; conditions: NIH3T3, 72 h
[6] = Inhibition of Wnt/beta-catenin signaling in human NL-20 cells by beta-catenin-based reporter assay; format: cell-based; conditions: NL20
Rattus norvegicus [7] = assay: Anti-inflammatory activity in Sprague-Dawley rat assessed as inhibition of LPS-induced TNFalpha production administered via oral gavage for 1 hr followed by LPS challenge measured after 1.5 hrs by ELISA; format: functional
[8] = target: T1, Mitogen-activated protein kinase kinase kinase 5 (Homo sapiens, UniProt Q99683); assay: Inhibition of recombinant human ASK1 using STK3 peptide as substrate incubated for 30 mins followed by ATP addition measured for 3 hrs by TR-FRET assay
T1 sequence (Q99683 whole entry): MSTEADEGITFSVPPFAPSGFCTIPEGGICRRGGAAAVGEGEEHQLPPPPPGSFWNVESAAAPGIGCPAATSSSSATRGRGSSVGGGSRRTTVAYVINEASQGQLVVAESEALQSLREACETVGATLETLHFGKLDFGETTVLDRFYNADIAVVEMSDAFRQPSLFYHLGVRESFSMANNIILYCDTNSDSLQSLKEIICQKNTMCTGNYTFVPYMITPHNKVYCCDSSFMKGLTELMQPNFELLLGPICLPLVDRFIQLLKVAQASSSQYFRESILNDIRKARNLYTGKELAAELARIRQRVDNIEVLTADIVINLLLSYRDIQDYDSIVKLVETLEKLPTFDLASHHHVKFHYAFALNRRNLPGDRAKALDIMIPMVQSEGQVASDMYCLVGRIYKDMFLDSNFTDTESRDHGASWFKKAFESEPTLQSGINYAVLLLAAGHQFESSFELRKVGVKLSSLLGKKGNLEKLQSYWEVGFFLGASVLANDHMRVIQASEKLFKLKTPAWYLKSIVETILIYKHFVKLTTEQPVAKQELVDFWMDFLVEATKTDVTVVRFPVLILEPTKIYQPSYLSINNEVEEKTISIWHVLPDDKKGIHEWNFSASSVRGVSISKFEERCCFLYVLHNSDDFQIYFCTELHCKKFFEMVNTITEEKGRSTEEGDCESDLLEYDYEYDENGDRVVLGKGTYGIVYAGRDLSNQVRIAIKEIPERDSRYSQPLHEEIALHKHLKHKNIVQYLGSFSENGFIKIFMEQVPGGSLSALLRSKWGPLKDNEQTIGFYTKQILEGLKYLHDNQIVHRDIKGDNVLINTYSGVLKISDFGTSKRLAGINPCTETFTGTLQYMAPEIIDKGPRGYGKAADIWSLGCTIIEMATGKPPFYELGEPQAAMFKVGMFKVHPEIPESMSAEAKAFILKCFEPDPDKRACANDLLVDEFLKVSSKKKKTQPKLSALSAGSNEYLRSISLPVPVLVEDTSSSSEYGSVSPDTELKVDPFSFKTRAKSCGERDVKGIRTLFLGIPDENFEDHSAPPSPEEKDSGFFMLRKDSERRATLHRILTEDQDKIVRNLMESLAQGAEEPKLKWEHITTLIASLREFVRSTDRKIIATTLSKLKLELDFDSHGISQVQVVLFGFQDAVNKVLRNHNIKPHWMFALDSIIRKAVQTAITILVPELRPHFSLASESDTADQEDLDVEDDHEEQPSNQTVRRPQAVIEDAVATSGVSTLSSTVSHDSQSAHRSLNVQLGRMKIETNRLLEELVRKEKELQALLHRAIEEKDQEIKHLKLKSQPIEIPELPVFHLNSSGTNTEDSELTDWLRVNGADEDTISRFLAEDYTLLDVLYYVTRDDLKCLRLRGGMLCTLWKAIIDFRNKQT

[9] = target: T2, Interleukin-8 receptors, CXCR1/CXCR2 (Homo sapiens) (UniProt P25025+P25024); assay: Inhibition of IL-8 interaction with CXCR1/CXCR2 in human PMN leukocytes assessed as reduction in leukocyte migration after 5 days in presence of Diff-Quick staining by matrigel based microscopic analysis; format: cell-based; conditions: concentration not given here
[10] = target: T2, Interleukin-8 receptors, CXCR1/CXCR2 (Homo sapiens); assay: Inhibition of GROalpha interaction with CXCR1/CXCR2 in human PMN leukocytes assessed as reduction in leukocyte migration after 5 days in presence of Diff-Quick staining by matrigel based microscopic analysis; format: cell-based; conditions: concentration not given here
[11] = target: T2, Interleukin-8 receptors, CXCR1/CXCR2 (Homo sapiens); assay: Inhibition of […] interaction with CXCR1/CXCR2 in human PMN leukocytes assessed as reduction in leukocyte migration after 5 days in presence of Diff-Quick staining by matrigel based microscopic analysis; format: cell-based; conditions: concentration not given here
A549 [12] = assay: Anticancer activity against human A549 cells after 24 hrs by cell titer 96 aqueous one solution based assay; format: functional; conditions: A549, 24 h
NIH3T3 [13] = assay: Antiproliferative activity against mouse NIH/3T3 cells; format: cell-based
[14] = target: Disintegrin and metalloproteinase domain-containing protein 17 (Homo sapiens, UniProt P78536); assay: Inhibition of recombinant TACE catalytic domain (unknown origin) using pro-TNFalpha peptide Abz-LAQAVRSSSR-Dpa as substrate preincubated for 10 mins followed by substrate addition measured after 10 mins by FRET assay
Sequence of Disintegrin and metalloproteinase domain-containing protein 17 (P78536 whole entry, the tested form may be a part): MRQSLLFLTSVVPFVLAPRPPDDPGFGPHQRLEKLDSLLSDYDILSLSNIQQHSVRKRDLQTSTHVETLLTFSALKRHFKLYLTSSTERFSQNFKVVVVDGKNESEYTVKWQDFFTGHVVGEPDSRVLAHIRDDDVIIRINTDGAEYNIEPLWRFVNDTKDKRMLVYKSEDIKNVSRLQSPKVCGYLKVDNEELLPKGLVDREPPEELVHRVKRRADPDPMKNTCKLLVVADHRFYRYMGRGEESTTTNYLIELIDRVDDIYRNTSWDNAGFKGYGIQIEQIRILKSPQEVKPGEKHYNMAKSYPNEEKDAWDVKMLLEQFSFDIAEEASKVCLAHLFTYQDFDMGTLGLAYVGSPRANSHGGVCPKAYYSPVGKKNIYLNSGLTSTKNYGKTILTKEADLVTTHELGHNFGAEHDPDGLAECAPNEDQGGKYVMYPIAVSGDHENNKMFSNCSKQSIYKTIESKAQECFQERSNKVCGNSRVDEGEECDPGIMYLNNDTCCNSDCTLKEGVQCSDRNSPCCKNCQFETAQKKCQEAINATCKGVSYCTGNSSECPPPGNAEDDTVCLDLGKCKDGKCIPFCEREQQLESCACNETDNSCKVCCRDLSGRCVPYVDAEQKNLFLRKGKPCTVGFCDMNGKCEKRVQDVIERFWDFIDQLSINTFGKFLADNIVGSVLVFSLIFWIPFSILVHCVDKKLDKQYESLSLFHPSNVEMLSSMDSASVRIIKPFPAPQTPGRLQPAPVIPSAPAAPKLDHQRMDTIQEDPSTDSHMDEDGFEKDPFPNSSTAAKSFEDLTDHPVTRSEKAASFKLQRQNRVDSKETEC

[15] = Inhibition of TGF-beta (unknown origin); design: species or system Homo sapiens
[16] = Elimination half life in healthy human at 801 mg; format: ADME; conditions: in vivo, read-out: beta t1/2 (converted)

CCOc1ccc(-n2c(C)cc(C)c(C#N)c2=O)cc1
Activity (Rattus norvegicus [1]): 119.55 µmol

COc1ccc2c(O[C@@H]3C[C@H](C(=O)N[C@@H](CC4CC4)C(=O)C(=O)NC4CC4)N(C[C@@H](NC(=O)NC(C)(C)C)C(C)(C)C)C3)nccc2c1
IC50 (Cathepsin B): 0.027 µM

O=c1ccc(COc2ccccc2)cn1-c1ccc(Cl)cc1
IC50 (NIH3T3 [2]): 14 µM

O=C(O)c1cc2c(O)cccc2n(-c2ccc(F)cc2Cl)c1=O
IC50 (NIH3T3 [3]): 90 µM

O=c1ccc2c(n1-c1ccc(Br)cc1)CCCC2O (stereo not given)
IC50 (NIH3T3 [3]): 300 µM

Cc1ccc(=O)n(-c2cccc(F)c2)c1 [FLUOROFENIDONE]
IC50 (NIH3T3 [3]): 4200 µM

Cc1cccc(NCc2ccc(=O)n(Cc3ccccc3)c2)c1
IC50 (A549 [4]): 130 µM

O=c1ccc(CNc2ccccc2F)cn1Cc1ccccc1
IC50 (NIH3T3 [5]): 3 µM

CN(C)c1cncc(-c2cnc3[nH]nc(-c4nc5c(-c6cccs6)cncc5[nH]4)c3c2)c1
IC50 [6]: 1.09 µM

CNC(=O)C1c2nc(C3CCC(NC(C)=O)CC3)nc(-c3cc(C(F)(F)F)ccc3OC3CC3)c2NC1C (stereo not given)
inhibition (INH) (Rattus norvegicus [7]): 7 - 99%

CC(n1cnnc1-c1nc(NC(=O)c2cc(-n3cnc(C4CC4)c3)c(N3CCCCC3)cn2)cs1)C(F)(F)F (stereo not given)
IC50 [8]: 0.0007 µM

CCC(=O)c1cccc(CC(=O)O)c1Cl
inhibition [9]: 67%
inhibition [10]: 27%

C[C@@H](C(=O)NCCN1CCCC1)c1ccc(OS(=O)(=O)C(F)(F)F)cc1
inhibition [11]: 65%
inhibition [9]: 52%
inhibition [10]: 0%

Nc1cncc(-c2cnc3[nH]nc(-c4nc5c(-c6cccc(F)c6)cncc5[nH]4)c3c2)c1
IC50 [6]: 0.175 µM

Cc1cc(CC(C)C)ccc1CC(=O)NS(C)(=O)=O
inhibition [9]: 67%
inhibition [10]: 0%

Cc1cccc(-n2cc(CNc3ccccc3)ccc2=O)c1
IC50 (A549 [12]): 130 µM

CO[C@H]1O[C@H](CNc2ccccc2Cn2cc(C(F)(F)F)ccc2=O)[C@@H](O)[C@H](O)[C@H]1O
IC50 (NIH3T3 [13]): 170 µM

CC(C)Nc1cncc(-c2cnc3[nH]nc(-c4nc5c(-c6cncc(F)c6)cncc5[nH]4)c3c2)c1
IC50 [6]: 0.067 µM

CN(C)c1cncc(-c2cnc3[nH]nc(-c4nc5c(-c6cccc(F)c6)cncc5[nH]4)c3c2)c1
IC50 [6]: 0.44 to 1.9 µM

Cc1cccc(-n2cc(COc3ccccc3)ccc2=O)c1
IC50 (NIH3T3 [2]): 16 µM

C[C@@H](C(=O)NCCCN1CCCC1)c1ccc(OS(=O)(=O)C(F)(F)F)cc1
inhibition [11]: 67%
inhibition [9]: 51%
inhibition [10]: 0%

Cc1cc(COc2ccc(S(=O)(=O)N[C@@H]3CCC[C@@H]3C(=O)NO)cc2)c2ccccc2n1
IC50 [14]: 0.0006 µM

NC(=O)c1cnccc1Nc1nc(-c2cc(Cl)ccc2F)nc2ncccc12
IC50 [15]: 0.02 µM

CNC(=O)C1c2nc(C3CCC(NC(=O)COC)CC3)nc(-c3cc(C(F)(F)F)ccc3OC3CC3)c2NC1C (stereo not given)
inhibition (INH) (Rattus norvegicus [7]): 7 - 99%

CCC(=O)NC1CCC(c2nc(-c3cc(C(F)(F)F)ccc3OC3CC3)c3c(n2)C(C(=O)NC)C(C)N3)CC1 (stereo not given)
inhibition (INH) (Rattus norvegicus [7]): 7 - 99%

CNC(=O)c1cnccc1Nc1nc(-c2cc(Cl)ccc2F)nc2ncccc12
IC50 [15]: 0.07 µM

CNC(=O)C1c2nc(C3CCC(NC(=O)COC)CC3)nc(-c3ccc(F)cc3OC3CC3)c2NC1C (stereo not given)
inhibition (INH) (Rattus norvegicus [7]): 7 - 99%

CNC(=O)C1c2nc(C3CCC(NC(=O)COC)CC3)nc(-c3cc(C)ccc3OC3CC3)c2NC1C (stereo not given)
inhibition (INH) (Rattus norvegicus [7]): 7 - 99%

COc1ccc(Cn2cc(COc3ccc(F)cc3)ccc2=O)cc1
IC50 (A549 [4]): 20 µM
IC50 (NIH3T3 [5]): 55 µM

CCOc1ccc(-n2c(N)c(C#N)c(-c3ccccc3)c(C#N)c2=O)cc1
Activity (Rattus norvegicus [1]): 48.55 µmol

Cc1ccc(=O)n(-c2ccccc2)c1 [PIRFENIDONE]
half-life [16]: 3 h
IC50 (NIH3T3 [5]): 454 µM
Activity (Rattus norvegicus [1]): 158.39 µmol
